Measurements taken from PubChem BioAssay AID248 (DTP/NCI, 2004).
Values joined by “and” are separate entries in the source; they are usually repeats but may differ in a detail not shown here. Identical values can stand only once. Toxic doses and inconclusive results are not listed. Rule as the data show it: active = T/C of 150% or more; inactive = T/C below 125%.

Test system: L1210 leukemia ip in BDF1 mice, survival T/C
Test: NCI In Vivo Anticancer Drug Screen. Data for tumor model L1210 Leukemia (intraperitoneal) in B6D2F1 (BDF1) mice
Details: endpoint: mean survival time, higher = longer survival
Method in brief: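 Antitumor effect is assessed in tumor-bearing animals. Survival in the compound arm is compared with a vehicle-dosed control arm and expressed as their quotient.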

[1] = dose: 100.0 mg/kg/injection, schedule: Q04DX003 (ip), vehicle: saline with Tween-80
[2] = dose: 200.0 mg/kg/injection, schedule: Q04DX003 (ip), vehicle: saline with Tween-80
[3] = dose: 400.0 mg/kg/injection, schedule: Q04DX003 (ip), vehicle: saline with Tween-80
[4] = dose: 100.0 mg/kg/injection, schedule: Q01DX001 (ip), vehicle: saline
[5] = dose: 200.0 mg/kg/injection, schedule: Q01DX001 (ip), vehicle: saline
[6] = dose: 400.0 mg/kg/injection, schedule: Q01DX001 (ip), vehicle: saline
[7] = dose: 100.0 mg/kg/injection, schedule: Q04DX002 (ip), vehicle: saline with Tween-80
[8] = dose: 200.0 mg/kg/injection, schedule: Q04DX002 (ip), vehicle: saline with Tween-80
[9] = dose: 400.0 mg/kg/injection, schedule: Q04DX002 (ip), vehicle: saline with Tween-80
[10] = dose: 100.0 mg/kg/injection, schedule: Q04DX003 (ip), vehicle: saline
[11] = dose: 200.0 mg/kg/injection, schedule: Q04DX003 (ip), vehicle: saline
[12] = dose: 400.0 mg/kg/injection, schedule: Q04DX003 (ip), vehicle: saline
[13] = dose: 25.0 mg/kg/injection, schedule: Q01DX009 (ip), vehicle: saline
[14] = dose: 25.0 mg/kg/injection, schedule: Q04DX003 (ip), vehicle: saline
[15] = dose: 50.0 mg/kg/injection, schedule: Q01DX009 (ip), vehicle: saline
[16] = dose: 50.0 mg/kg/injection, schedule: Q04DX003 (ip), vehicle: saline
[17] = dose: 100.0 mg/kg/injection, schedule: Q01DX009 (ip), vehicle: saline
[18] = dose: 50.0 mg/kg/injection, schedule: Q01DX001 (ip), vehicle: carboxymethylcellulose (CMC)
[19] = dose: 100.0 mg/kg/injection, schedule: Q01DX001 (ip), vehicle: carboxymethylcellulose (CMC)
[20] = dose: 200.0 mg/kg/injection, schedule: Q01DX001 (ip), vehicle: carboxymethylcellulose (CMC)
[21] = dose: 400.0 mg/kg/injection, schedule: Q01DX001 (ip), vehicle: carboxymethylcellulose (CMC)
[22] = dose: 200.0 mg/kg/injection, schedule: Q01DX009 (ip), vehicle: saline

Measured: T/C

Nc1cccc(S(=O)(=O)c2cccc(N)c2)c1
inactive: dose: 100.0 mg/kg/injection, schedule: Q01DX009 (ip), vehicle: Klucel (hydroxypropylcellulose) (HPC) 100 % of control | dose: 100.0 mg/kg/injection, schedule: Q04DX003 (ip), vehicle: Klucel (hydroxypropylcellulose) (HPC) 97 % of control | dose: 200.0 mg/kg/injection, schedule: Q01DX009 (ip), vehicle: Klucel (hydroxypropylcellulose) (HPC) 94 % of control | dose: 200.0 mg/kg/injection, schedule: Q04DX003 (ip), vehicle: Klucel (hydroxypropylcellulose) (HPC) 94 % of control | dose: 400.0 mg/kg/injection, schedule: Q01DX009 (ip), vehicle: Klucel (hydroxypropylcellulose) (HPC) 92 % of control | dose: 400.0 mg/kg/injection, schedule: Q04DX003 (ip), vehicle: Klucel (hydroxypropylcellulose) (HPC) 94 % of control

C=Cc1c(C)c(O)cc2c1CC[C@@H]1C(C)(C)[C@H](O)[C@H](O)C[C@@]21C
inactive: [1] 103 % of control | [2] 100 % of control | [3] 98 % of control

CNC(=O)O/N=C\C=N\OC(=O)NC
inactive: [4] 93 % of control | [5] 98 % of control | [6] 95 % of control

CC(=O)Nc1ncccn1
inactive: [7] 98 % of control | [8] 98 % of control | [9] 98 % of control

CCOC(=O)OC1CC/C(=N\NC(N)=S)C1 (stereo not given)
inactive: dose: 15.0 mg/kg/injection, schedule: Q01DX Z (ip), vehicle: methylcellulose (MC) 104 % of control | dose: 30.0 mg/kg/injection, schedule: Q01DX Z (ip), vehicle: methylcellulose (MC) 101 % of control | dose: 60.0 mg/kg/injection, schedule: Q01DX Z (ip), vehicle: methylcellulose (MC) 108 % of control | dose: 120.0 mg/kg/injection, schedule: Q01DX Z (ip), vehicle: methylcellulose (MC) 98 % of control

CCN1CCC2=C(CCCC2O)C1 (stereo not given)
inactive: dose: 75.0 mg/kg/injection, schedule: Q01DX001 (ip), vehicle: steriod suspending solution 104 % of control | dose: 150.0 mg/kg/injection, schedule: Q01DX001 (ip), vehicle: steriod suspending solution 98 % of control

CC(C(c1ccc(Br)cc1)c1ccccc1Cl)[N+](=O)[O-] (stereo not given)
inactive: [10] 95 % of control | [11] 86 % of control | [12] 101 % of control

c1ccc(-c2cc(-c3ccccc3)[nH]n2)cc1
inactive: [1] 100 % of control | [2] 110 % of control | [3] 105 % of control

C=C(Cl)COC1CCS(=O)(=O)C1 (stereo not given)
inactive: dose: 6.25 mg/kg/injection, schedule: Q01DX009 (ip), vehicle: saline with Tween-80 94 % of control and 101 % of control | dose: 12.5 mg/kg/injection, schedule: Q01DX009 (ip), vehicle: saline with Tween-80 95 % of control and 97 % of control | dose: 25.0 mg/kg/injection, schedule: Q01DX009 (ip), vehicle: saline with Tween-80 100 % of control and 122 % of control | dose: 50.0 mg/kg/injection, schedule: Q01DX009 (ip), vehicle: saline with Tween-80 97 % of control

O=C(O)c1ccccc1N1C(=O)c2ccccc2C1=O
inactive: [4] 91 % of control | [5] 96 % of control | [6] 94 % of control

c1ccc2nc3ccccc3c-2cc1
inactive: dose: 100.0 mg/kg/injection, schedule: Q04DX003 (ip), vehicle: acetone 95 % of control | dose: 200.0 mg/kg/injection, schedule: Q04DX003 (ip), vehicle: acetone 98 % of control | dose: 400.0 mg/kg/injection, schedule: Q04DX003 (ip), vehicle: acetone 95 % of control

CC(=O)C[P+](c1ccccc1)(c1ccccc1)c1ccccc1
inactive: dose: 12.0 mg/kg/injection, schedule: Q01DX009 (ip), vehicle: saline 96 % of control | dose: 12.0 mg/kg/injection, schedule: Q04DX003 (ip), vehicle: saline 104 % of control | [13] 96 % of control | [14] 94 % of control | [15] 112 % of control | [16] 98 % of control

O=[N+]([O-])c1ccc(N/N=C(/Cl)c2ccccc2)cc1
inactive: [16] 101 % of control | [10] 98 % of control | [11] 96 % of control

CCOC(=O)N(C1CCCCC1)P(=O)(OCC)OCC
inactive: dose: 12.5 mg/kg/injection, schedule: Q01DX009 (ip), vehicle: saline 96 % of control and 108 % of control | dose: 12.5 mg/kg/injection, schedule: Q04DX003 (ip), vehicle: saline 100 % of control | [13] 100 % of control and 91 % of control | [14] 107 % of control | [15] 97 % of control and 100 % of control | [16] 110 % of control | [17] 103 % of control and 91 % of control | [10] 103 % of control | [11] 100 % of control

COc1ccc(CN2CCCN(Cc3ccc(OC)cc3OC)C2c2cc(OC)ccc2OC)c(OC)c1
inactive: [18] 114 % of control | [19] 102 % of control | [20] 102 % of control | [21] 108 % of control

CCCC(O)(CCC)C(=O)O
inactive: [4] 94 % of control | [5] 94 % of control

N=[N+]=CC(=O)CC(N)C(=O)O (stereo not given)
inactive: dose: 50.0 mg/kg/injection, schedule: Q01DX001 (ip), vehicle: saline 94 % of control | [15] 104 % of control | [4] 94 % of control | [17] 107 % of control | dose: 128.0 mg/kg/injection, schedule: Q03HX024 (ip), vehicle: saline 117 % of control | [5] 99 % of control | [22] 113 % of control | dose: 256.0 mg/kg/injection, schedule: Q04DX003 (ip), vehicle: saline 102 % of control | [6] 96 % of control | dose: 512.0 mg/kg/injection, schedule: Q04DX003 (ip), vehicle: saline 105 % of control | dose: 1024.0 mg/kg/injection, schedule: Q04DX003 (ip), vehicle: saline 108 % of control

COCCNCCOC
inactive: [16] 106 % of control | [17] 103 % of control | [10] 100 % of control | [22] 98 % of control | [11] 122 % of control | dose: 400.0 mg/kg/injection, schedule: Q01DX009 (ip), vehicle: saline 104 % of control | [12] 103 % of control

O=C1c2ccccc2C(=O)C2OC12 (stereo not given)
inactive: dose: 3.0 mg/kg/injection, schedule: Q01DX009 (ip), vehicle: Klucel (hydroxypropylcellulose) (HPC) 97 % of control | dose: 6.0 mg/kg/injection, schedule: Q01DX009 (ip), vehicle: Klucel (hydroxypropylcellulose) (HPC) 93 % of control | dose: 12.0 mg/kg/injection, schedule: Q01DX009 (ip), vehicle: Klucel (hydroxypropylcellulose) (HPC) 97 % of control | dose: 12.5 mg/kg/injection, schedule: Q04DX002 (ip), vehicle: Klucel (hydroxypropylcellulose) (HPC) 102 % of control | dose: 25.0 mg/kg/injection, schedule: Q04DX002 (ip), vehicle: Klucel (hydroxypropylcellulose) (HPC) 94 % of control | [18] 98 % of control | dose: 50.0 mg/kg/injection, schedule: Q04DX002 (ip), vehicle: Klucel (hydroxypropylcellulose) (HPC) 97 % of control | [19] 109 % of control | [20] 98 % of control | [21] 104 % of control

C/C(C/C=N/N=C(N)N)=N\N=C(N)N
inactive: dose: 15.0 mg/kg/injection, schedule: Q01DX Z (ip), vehicle: water 98 % of control | dose: 30.0 mg/kg/injection, schedule: Q01DX Z (ip), vehicle: water 96 % of control | dose: 60.0 mg/kg/injection, schedule: Q01DX Z (ip), vehicle: water 102 % of control | dose: 120.0 mg/kg/injection, schedule: Q01DX Z (ip), vehicle: water 102 % of control | dose: 120.0 mg/kg/injection, schedule: Q01DX Z (oral), vehicle: water 103 % of control | dose: 240.0 mg/kg/injection, schedule: Q01DX Z (oral), vehicle: water 100 % of control | dose: 480.0 mg/kg/injection, schedule: Q01DX Z (oral), vehicle: water 108 % of control | dose: 960.0 mg/kg/injection, schedule: Q01DX Z (oral), vehicle: water 102 % of control

O=C(C1CC1c1ccccc1)N1CCC(O)(c2ccccc2)CC1 (stereo not given)
inactive: [7] 103 % of control | [8] 100 % of control | [9] 97 % of control
